# Measured values from patent US20100300896A1, “Redox Molecules And Methods Of Making The Same” (BAYER HEALTHCARE LLC, priority 2009, published 2010).
# Where two headings read alike, the source gives them in different places.
# Tests used:
# [1] = conventional mediator, buffer not stated; cited from earlier work
# [2] = Open circuit voltage between working electrode and reference electrode; assay type: physicochemical; conditions: 10 mM PBS buffer
# Experimental: The open circuit voltage between the WE and the RE also was measured for the mediator composition of FIGS. 1A and 1B. The open circuit voltage is a measure of the redox state of the mediator.
# The open circuit voltage between the WE and the RE also was measured for the compound having general formula (III), where X is bromine.
# [3] = Voltammetric scan of the mediator: output current in response to input potential (glassy carbon WE, Ag/AgCl RE, platinum CE); assay type: physicochemical; conditions: for redox potential: mediator 1 mg/mL
# Description: FIGS. 1A and 1B depict graphs illustrating output currents from mediator reduction in response to an input potential. The mediator was a composition including a 3:2 molar mixture of a first compound having the general formula (I), and a second compound having the general formula (II), where X is bromine and each compound is present as the disodium salt. A 5 mm glassy carbon electrode served as a working electrode (WE), Ag/AgCl as a reference electrode (RE), and platinum gauAge as a counter electrode (CE). In FIG. 1A, the mediator composition was present at a concentration of 1 mg/mL in a mixture containing 10 mM PBS buffer (pH 7.4), and the input potential was scanned between −200 mV and 200 mV vs. Ag/AgCl. In FIG. 1B, the mediator composition was present at a concentration of 1 mg/mL in a mixture containing 100 mM PBS (pH 7.0) and 100 mM NaCl buffer solution, and the input potential was scanned between −100 mV and 200 mV vs. Ag/AgCl. Referring to FIG. 1B, when the scan rate was less than 50 mV/s, the oxidative and reductive peak separation was around 30-40 mV. […] The redox potential of the mediator composition of FIGS. 1A and 1B was about −3 mV vs. Ag/AgCl in the 10 mM PBS buffer (pH 7.4), and was about 40 mV vs. Ag/AgCl in the mixture of 100 mM PBS (pH 7.0) and 100 mM NaCl buffer. These redox potentials are similar to that of the conventional mediator (E)-2-(3H-phenothiaAgine-3-ylideneamino)benAgene-1,4-disulfonic acid (Structure A), which is −50 mV vs. Ag/AgCl. FIG. 5A and FIG. 5B depict graphs illustrating output currents from mediator reduction in response to an input potential. The mediator was a compound having general formula (III), where X is bromine. A 5 mm glassy carbon electrode served as a WE, Ag/AgCl as a RE, and platinum gauAge as a CE. In FIG. 5A, the mediator was present at a concentration of 1 mg/mL in a mixture containing 10 mM PBS buffer (pH 7.4), and the input potential was scanned between −200 mV and 200 mV vs. Ag/AgCl. […]
# glucose dehydrogenase = test: Output current from mediator in a mixture containing glucose and glucose dehydrogenase; assay type: biochemical; conditions: mediator 3 mg/mL, 10 mM PBS buffer (pH 7.4), input potential 100 mV vs. Ag/AgCl, glucose 0 to 1.2 mM
# Experimental: FIG. 2 depicts a graph illustrating output currents from mediator oxidation in response to an input potential when the mediator is in a mixture containing glucose and glucose dehydrogenase. The mediator was the composition used in FIGS. 1A and 1B. A 5 mm glassy carbon electrode served as a WE, Ag/AgCl as a RE, and platinum gauAge as a CE. The composition was present at a concentration of 2 mg/mL in a mixture containing 10 mM PBS buffer (pH 7.4), and the input potential was 100 mV vs. Ag/AgCl. […] Thus, the composition may be used as a mediator for the redox reaction correlating the glucose concentration in a sample with an electrical signal. Referring to FIG. 2, a compound having general formula (III), where X is bromine, can be used as a mediator for the redox reaction correlating the glucose concentration of a sample with an electrical signal. A 5 mm glassy carbon electrode served as a WE, Ag/AgCl as a RE, and platinum gauAge as a CE. The mediator was present at a concentration of 3 mg/mL in a mixture containing 10 mM PBS buffer (pH 7.4), and the input potential was 100 mV vs. Ag/AgCl. […] Thus, the composition may be used as a mediator for the redox reaction correlating the glucose concentration in a sample with an electrical signal.
open circuit voltage [2],redox potential ([3]; 10 mM PBS buffer (pH 7.4)),redox potential ([3]; mixture of 100 mM PBS (pH 7.0) and 100 mM NaCl buffer),"oxidative and reductive peak separation ([3]; scan rate less than 50 mV/s, 100 mM PBS (pH 7.0) and 100 mM NaCl buffer, 1 mg/mL)",Structure (SMILES),redox potential [1],output current vs glucose concentration (glucose dehydrogenase)
,,,,"O=S(=O)(O)c1ccc(S(=O)(=O)O)c(/N=c2\ccc3nc4ccccc4sc-3c2)c1 [Structure A, (E)-2-(3H-phenothiaAgine-3-ylideneamino)benAgene-1,4-disulfonic acid]",−50 mV vs. Ag/AgCl,
111 mV vs. Ag/AgCl,about 3 mV vs. Ag/AgCl,about 15 mV vs. Ag/AgCl,30-40 mV,"O=S(=O)(O)c1ccc(S(=O)(=O)O)c(N=c2cc3sc4ccccc4nc-3cc2OCCCCCCCCBr)c1 [2-(2-(8-bromooctanoxy)-3H-phenothiaAgin-3-ylideneamino)benAgene-1,4-disulfonic acid]",,output current increased as the glucose concentration increased from 0 to 1.2 mM
